Experimental data as given in paper PMC2833169, “Anti-malarial activity of a non-piperidine library of next-generation quinoline methanols” (Malaria Journal, 2010).
In brackets after ≈: the same amount, converted by molar mass. Like-named read-outs stand apart in the source and are kept apart here.

Columns and labels:
P. falciparum strain W2 = assay: labeled hypoxanthine susceptibility assay, P. falciparum W2; type: cell-based, Plasmodium falciparum; conditions: Plasmodium falciparum, W2, read-out: IC90 Pf W2
Procedure: (§1) The in vitro activities of quinoline methanols against P. falciparum strains W2, D6, TM91C235, and TM90C2A were evaluated using the traditional labeled hypoxanthine assay of Desjardins et al as modified by Milhous et al. These four P. falciparum strains were selected since they have various levels of resistance to conventional anti-malarials.

P. falciparum strain D6 = assay: labeled hypoxanthine susceptibility assay, P. falciparum D6; type: cell-based, Plasmodium falciparum; conditions: Plasmodium falciparum, D6, read-out: IC90 Pf D6, P. falciparum D6; mefloquine: historical mean +/- SD (n)
Procedure: as §1

[1] = tested on: P. falciparum strain TM91C235; assay: labeled hypoxanthine susceptibility assay, P. falciparum TM91C235; type: cell-based, Plasmodium falciparum; conditions: Plasmodium falciparum, read-out: IC90 Pf C235
Procedure: as §1

[2] = tested on: P. falciparum strain TM90C2A; assay: labeled hypoxanthine susceptibility assay, P. falciparum TM90C2A; type: cell-based, Plasmodium falciparum; conditions: Plasmodium falciparum, TM90C2A
Procedure: as §1

in vitro [3] = conditions: mouse
Procedure: (§2) General cytotoxicity was assessed by first determining LC50 's against a rodent macrophage (RAW) cell line using the 3-(4,5-dimethylthiazole-2-yl)-2,5-diphenyltetrazolium bromide (MTT) assay as described in one of our earlier studies. This screen was conducted to identify compounds that may require de-selection due to generalized toxicity. […] In vitro neurocytotoxicity was assessed by determining LC50s against primary mouse neurons using the MTT assay as described previously. Inhibition of the A2A and A1 receptors was determined at 200 nM in duplicate by Caliper Biosciences (Hanover, Maryland).

in vitro [4] = conditions: mouse; remark: listed apart in the source
Procedure: as §2

A2A receptor = target: T1, A2A receptor (Homo sapiens, UniProt P29274); assay: inhibition of the A2A receptor at 200 nM; type: binding; conditions: read-out: % A2A inhibition at 200 nM
T1 construct: Caliper Biosciences (contract screen)
Procedure: as §2

A1 receptor = target: T2, A1 receptor (Homo sapiens, UniProt P30542); assay: inhibition of the A1 receptor at 200 nM; type: binding; conditions: duplicate
T2 construct: Caliper Biosciences (contract screen)
T2 sequence (P30542 1-326): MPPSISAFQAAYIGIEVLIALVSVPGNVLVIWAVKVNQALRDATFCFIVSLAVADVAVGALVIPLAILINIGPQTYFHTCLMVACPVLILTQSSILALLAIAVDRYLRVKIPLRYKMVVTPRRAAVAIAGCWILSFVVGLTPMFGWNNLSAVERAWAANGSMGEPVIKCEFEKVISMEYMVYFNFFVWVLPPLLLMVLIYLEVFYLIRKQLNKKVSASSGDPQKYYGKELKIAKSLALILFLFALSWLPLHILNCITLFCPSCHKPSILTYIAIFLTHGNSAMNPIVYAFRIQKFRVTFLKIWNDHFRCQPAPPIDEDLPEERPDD
Procedure: as §2

[5] = tested on: MDR1-transfected MDCK cell monolayers; assay: apparent permeability across MDR1-MDCK cell monolayers
Procedure: (§3) For this reason, the apparent permeability of selected compounds across MDR1-transfected MDCK cell monolayers was determined. This assay is an in vitro surrogate of the blood-brain barrier.
(§4) Permeability was determined by Absorption Systems (Exton, PA). MDR1-MDCK cell monolayers were grown to confluence on collagen-coated, microporous, polycarbonate membranes in 12-well Costar Transwell plates. […] The permeability assay buffer was Hanks Balanced Salt Solution containing 10 mM HEPES and 15 mM glucose at a pH of 7.4. A known p-glycoprotein inhibitor cyclosporin A (CSA) was also added to the assay buffer at 10 μM. Bovine serum albumin (1%) was added to the receiver well. The dosing solution concentrations of the test compounds were 5.0 μM in the assay buffer. All cell monolayers were first pre-incubated for 30 minutes with assay buffer. After 30 minutes, the buffer was removed, replaced with fresh buffer, and time was recorded as 0. […] Cell monolayers were dosed on the apical side (A-to-B) or basolateral side (B-to-A) and incubated at 37°C with 5% CO2 in a humidified incubator. After 2 hours, aliquots were taken from the receiver chambers. Samples were taken from the donor chamber at 0 and 2 hours. Each determination was performed in duplicate. The lucifer yellow flux was also measured for each monolayer to ensure no damage was inflicted to the cell monolayers during the flux period. All samples were assayed by LC/MS/MS using electrospray ionization.
(§5) Apparent permeability in the apical (A-B direction), PappA-B, and percent recovery are reported. Apparent permeability is a measure of the rate of transport across the cell monolayer. Percent recovery refers to the amount of compound recoverable at the end of the assay. Low recovery may indicate non-specific binding to assay plates, instability or accumulation in the cell pellet.
(§6) The apparent permeability, Papp, and percent recovery were calculated as follows:
(§7) Papp = (dCr/dt) × Vr/(A × C0) (1)
(§8) Percent Recovery = 100 × ((Vr × Cr^final) + (Vd × Cd^final))/(Vd × […]) (2)

[6] = metabolic stability in mouse liver microsomes; type: in vitro ADME
Procedure: Interesting compounds were also submitted for drug-drug interaction and metabolic stability assays. Low IC50s against specific cytochrome P450 isoforms may indicate the potential for a harmful drug interaction to occur in vivo with substrates of that isoform. A lack of metabolic stability in vitro may indicate potential metabolic instability in vivo, and, therefore, a shorter half-life. Drug interaction potential was evaluated in vitro using BD Gentest (Franklin Lakes, NJ) CYP450 inhibition kits as recommended by the manufacturer. Metabolic stability assessments were conducted using in vitro liver microsomes. […] The reaction is started with the addition of 1 U/mL glucose-6-phosphate dehydrogenase G6PD. The mixture is incubated on a shaking platform at 37°C, and aliquots are taken and quenched with the addition of an equal volume of cold acetonitrile at 0, 10, 20, 30, and 60 min. Samples are centrifuged at 3700 rpm for […] at 20°C to remove debris. Sample quantification is carried out by LC/MS, and metabolic half-life is calculated by log plots of the total ion chromatograph area remaining.

in vitro [7] = conditions: dog, MDCK-MDR1, pH 7.4
Procedure: as §3, §4, §5, §6, §7, §8

T1 sequence (P29274 whole entry): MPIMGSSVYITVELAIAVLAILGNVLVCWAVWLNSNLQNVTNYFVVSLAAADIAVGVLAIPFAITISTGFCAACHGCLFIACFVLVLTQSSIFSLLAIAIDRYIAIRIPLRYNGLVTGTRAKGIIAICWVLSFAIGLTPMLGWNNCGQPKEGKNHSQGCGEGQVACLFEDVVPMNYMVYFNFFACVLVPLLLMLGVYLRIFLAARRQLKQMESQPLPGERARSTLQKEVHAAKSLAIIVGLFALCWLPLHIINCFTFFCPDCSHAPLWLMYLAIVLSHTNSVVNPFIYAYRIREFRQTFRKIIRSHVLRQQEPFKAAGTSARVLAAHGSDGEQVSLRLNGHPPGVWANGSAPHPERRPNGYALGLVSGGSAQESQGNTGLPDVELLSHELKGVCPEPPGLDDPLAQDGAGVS

Row | SMILES | IC90 (P. falciparum strain W2) | IC90 (P. falciparum strain D6) | IC90 [1] | IC90 ([2]; read-out: IC90 Pf C2A) | IC90 ([2]; read-out: IC90 PfC2A) | CC50 (in vitro [3]) | CC50 (in vitro [4]) | inhibition at 0.2 µM (A2A receptor) | inhibition at 0.2 µM (A1 receptor) | PappA-B MDCK-MDR1 ([5]; apical (A-B) direction, 5.0 μM, 10 μM cyclosporin A, 2 h, mefloquine average of n = 3) | % recovery (MDCK-MDR1 permeability assay) ([5]; compound recoverable at end of assay) | HL in Microsomes ([6]; 1 μM, pH 7.4) | half-life at 1 μM ([6]; mouse, microsomes, pH 7.4) | Papp A→B at 2 h, 5 μM (in vitro [7]) | % recovery (MDCK-MDR1 permeability assay) ([5]; dog, MDCK-MDR1, 2 h, 5 μM, pH 7.4) | HL in Microsomes ([6]; Figure 3, species of microsomes not given)
1 | OC(c1cc(C(F)(F)F)nc2c(C(F)(F)F)cccc12)C1CCCCN1 (stereo not drawn) [Mefloquine, mefloquine, reference compound] | 0.0062 ± 0.0028 µg/mL (≈ 0.0164 µM) | 0.017 ± 0.011 µg/mL (≈ 0.0449 µM) | 0.052 ± 0.03 µg/mL (≈ 0.137 µM) | 0.074 ± 0.032 µg/mL | 0.171 µM | 3.72 ± 1.51 µg/mL (≈ 9.84 µM) | 41 µM | 62% | 4% | 9.4 10^-6 cm/s | < 40% | > 60 min | > 1 h |  |  | 
2 | CCCCNCCNCC(O)c1cc(C(F)(F)F)nc2c(C(F)(F)F)cccc12 (stereo not drawn) [WR318746] | 0.09 µg/mL (≈ 0.213 µM) | 0.155 µg/mL (≈ 0.366 µM) | 0.283 µg/mL (≈ 0.668 µM) | 0.319 µg/mL |  | 28.5 µg/mL (≈ 67.4 µM) |  |  |  |  |  |  |  | 5.9 ×10⁻⁶ cm/s | 42% | > 60 min
